From the NIST ThermoML archive (doi:10.1021/je300590v)

Assay: xn = mol fraction of the nth substance listed
Details: Vibrating tube method

N#N [nitrogen] + O=C=O
mass density [kg/m3]
Details | x2 = 0.8785 | x2 = 0.9873
273.15 K, 1001 kPa, Gas | 22.5 | 21.9
273.15 K, 2000 kPa, Gas | 43.7 | –
273.15 K, 2001 kPa, Gas | – | 46
273.15 K, 3001 kPa, Gas | 69.6 | 76.9
273.15 K, 3480 kPa, Gas | – | 98
273.15 K, 3902 kPa, Liquid | – | 911.4
273.15 K, 4000 kPa, Liquid | – | 911.6
273.15 K, 4001 kPa, Gas | 104 | –
273.15 K, 4100 kPa, Gas | 108.6 | –
273.15 K, 5001 kPa, Liquid | – | 922.2
273.15 K, 6000 kPa, Liquid | – | 930.9
273.15 K, 7000 kPa, Liquid | – | 938.7
273.15 K, 8001 kPa, Liquid | – | 946
273.15 K, 8401 kPa, Liquid | 805 | –
273.15 K, 9000 kPa, Liquid | – | 952.8
273.15 K, 9001 kPa, Liquid | 811.5 | –
273.15 K, 10000 kPa, Liquid | – | 959.2
273.15 K, 10001 kPa, Liquid | 824 | –
273.15 K, 11001 kPa, Liquid | – | 965.2
273.15 K, 11003 kPa, Liquid | 836 | –
273.15 K, 12000 kPa, Liquid | 847 | 970.8
273.15 K, 13001 kPa, Liquid | 856.6 | –
273.15 K, 13002 kPa, Liquid | – | 976.3
273.15 K, 14000 kPa, Liquid | 865.1 | –
273.15 K, 14001 kPa, Liquid | – | 981.5
273.15 K, 15001 kPa, Liquid | – | 986.6
273.15 K, 15002 kPa, Liquid | 873.4 | –
273.15 K, 16000 kPa, Liquid | – | 991.4
273.15 K, 16001 kPa, Liquid | 880.8 | –
273.15 K, 17000 kPa, Liquid | 887.8 | –
273.15 K, 17002 kPa, Liquid | – | 996.1
273.15 K, 18000 kPa, Liquid | 894.6 | –
273.15 K, 18012 kPa, Liquid | – | 1000.6
273.15 K, 19001 kPa, Liquid | 900.7 | –
273.15 K, 19011 kPa, Liquid | – | 1004.8
273.15 K, 20000 kPa, Liquid | 906.6 | –
273.15 K, 20001 kPa, Liquid | – | 1008.7
283.15 K, 1000 kPa, Gas | – | 20.1
283.15 K, 1004 kPa, Gas | 19.4 | –
283.15 K, 2000 kPa, Gas | – | 42.5
283.15 K, 2001 kPa, Gas | 40.3 | –
283.15 K, 3000 kPa, Gas | 64.6 | 69.8
283.15 K, 4000 kPa, Gas | – | 106.2
283.15 K, 4001 kPa, Gas | 93.7 | –
283.15 K, 4500 kPa, Gas | – | 131.6
283.15 K, 5001 kPa, Gas | 131.6 | –
283.15 K, 5101 kPa, Liquid | – | 841.4
283.15 K, 5600 kPa, Gas | 170.5 | –
283.15 K, 6001 kPa, Liquid | – | 857.5
283.15 K, 7000 kPa, Liquid | – | 870.7
283.15 K, 8000 kPa, Liquid | – | 882.2
283.15 K, 9001 kPa, Liquid | 708.8 | 892.5
283.15 K, 10001 kPa, Liquid | – | 901.7
283.15 K, 10002 kPa, Liquid | 736.1 | –
283.15 K, 11001 kPa, Liquid | 757.6 | 910.2
283.15 K, 12000 kPa, Liquid | 775.3 | –
283.15 K, 12001 kPa, Liquid | – | 918
283.15 K, 13000 kPa, Liquid | – | 925.4
283.15 K, 13002 kPa, Liquid | 790.5 | –
283.15 K, 14000 kPa, Liquid | – | 932.2
283.15 K, 14001 kPa, Liquid | 803.8 | –
283.15 K, 15001 kPa, Liquid | – | 938.7
283.15 K, 15002 kPa, Liquid | 815.4 | –
283.15 K, 16001 kPa, Liquid | 825.4 | 944.9
283.15 K, 17000 kPa, Liquid | 835 | –
283.15 K, 17001 kPa, Liquid | – | 950.9
283.15 K, 18000 kPa, Liquid | 843.9 | –
283.15 K, 18003 kPa, Liquid | – | 956.5
283.15 K, 19001 kPa, Liquid | 852.1 | –
283.15 K, 19002 kPa, Liquid | – | 961.9
283.15 K, 20001 kPa, Liquid | 859.6 | 967
293.15 K, 1000 kPa, Gas | – | 18.4
293.15 K, 1001 kPa, Gas | 18.8 | –
293.15 K, 2000 kPa, Gas | 38.4 | 39.5
293.15 K, 3000 kPa, Gas | 60.8 | –
293.15 K, 3001 kPa, Gas | – | 64.3
293.15 K, 4001 kPa, Gas | 86.7 | 94.5
293.15 K, 5000 kPa, Gas | 117.2 | 135.5
293.15 K, 5700 kPa, Gas | – | 180.8
293.15 K, 6000 kPa, Gas | 156.7 | –
293.15 K, 6300 kPa, Liquid | – | 750.2
293.15 K, 7000 kPa, Liquid | – | 775
293.15 K, 7002 kPa, Gas | 213.8 | –
293.15 K, 7601 kPa, Gas | 271.4 | –
293.15 K, 8001 kPa, Liquid | – | 799.6
293.15 K, 9000 kPa, Liquid | – | 818.4
293.15 K, 9401 kPa, Liquid | 526.3 | –
293.15 K, 10000 kPa, Liquid | – | 833.7
293.15 K, 10001 kPa, Liquid | 579.5 | –
293.15 K, 11001 kPa, Liquid | 633.1 | –
293.15 K, 11002 kPa, Liquid | – | 846.8
293.15 K, 12001 kPa, Liquid | – | 858.3
293.15 K, 12002 kPa, Liquid | 669.7 | –
293.15 K, 13000 kPa, Liquid | 696.3 | 868.3
293.15 K, 14000 kPa, Liquid | – | 877.6
293.15 K, 14001 kPa, Liquid | 718.1 | –
293.15 K, 15001 kPa, Liquid | 736.4 | 886.2
293.15 K, 16001 kPa, Liquid | 752.3 | –
293.15 K, 16002 kPa, Liquid | – | 894.2
293.15 K, 17000 kPa, Liquid | 766.2 | –
293.15 K, 17001 kPa, Liquid | – | 901.7
293.15 K, 18000 kPa, Liquid | 778.4 | –
293.15 K, 18001 kPa, Liquid | – | 908.6
293.15 K, 19001 kPa, Liquid | 789.6 | 915.2
293.15 K, 20000 kPa, Liquid | 799.8 | –
293.15 K, 20001 kPa, Liquid | – | 921.4
